The results in this text go back to publication PMC6934184, “Selective DNA-PKcs inhibition extends the therapeutic index of localized radiotherapy and chemotherapy” (The Journal of Clinical Investigation, 2019).

For this assay, the target named is T1, MAP4K5 (KHS1) (Homo sapiens, UniProt Q9Y4K4).
T1 construct: purchased Thermo Fisher Scientific (Life Technologies) SelectScreen
The assay is described as follows: SelectScreen Z'LYTE. In kind it is biochemical. The procedure, abridged: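 SelectScreen broad panel; activity (Z'LYTE, Adapta) plus binding formats. ATP: Km app for CSF1R Z'LYTE; 10 for CAMK1 Adapta. Readout = % per kinase.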

T1 sequence (Q9Y4K4 whole entry): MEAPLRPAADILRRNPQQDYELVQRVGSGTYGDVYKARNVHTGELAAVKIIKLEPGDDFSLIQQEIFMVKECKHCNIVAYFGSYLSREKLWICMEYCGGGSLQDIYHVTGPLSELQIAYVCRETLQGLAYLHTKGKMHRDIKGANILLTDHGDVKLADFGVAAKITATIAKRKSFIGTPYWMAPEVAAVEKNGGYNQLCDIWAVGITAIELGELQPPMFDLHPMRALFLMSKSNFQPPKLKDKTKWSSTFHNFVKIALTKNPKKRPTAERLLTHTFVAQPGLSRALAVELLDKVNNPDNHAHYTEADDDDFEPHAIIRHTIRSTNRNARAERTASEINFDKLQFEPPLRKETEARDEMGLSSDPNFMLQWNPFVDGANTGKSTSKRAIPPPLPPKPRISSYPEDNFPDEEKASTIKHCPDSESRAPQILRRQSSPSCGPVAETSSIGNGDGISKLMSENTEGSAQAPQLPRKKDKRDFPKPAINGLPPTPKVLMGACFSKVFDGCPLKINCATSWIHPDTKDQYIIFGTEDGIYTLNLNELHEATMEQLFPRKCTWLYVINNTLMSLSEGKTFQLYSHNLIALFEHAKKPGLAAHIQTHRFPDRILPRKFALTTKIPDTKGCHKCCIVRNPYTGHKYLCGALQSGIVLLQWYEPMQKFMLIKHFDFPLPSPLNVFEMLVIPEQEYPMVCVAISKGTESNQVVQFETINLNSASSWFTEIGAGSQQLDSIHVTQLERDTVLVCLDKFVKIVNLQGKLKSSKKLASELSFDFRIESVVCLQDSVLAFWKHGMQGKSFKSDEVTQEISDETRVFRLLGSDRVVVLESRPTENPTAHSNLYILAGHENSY

A word on the inhibition: it is the change of the read-out against control, counted positive when it falls. Regarding `CN(C(=O)CN1CCOCC1)c1ccc2sc3c(-c4cccc5c(=O)cc(N6CC7CCC(C6)O7)oc45)cccc3c2c1` [NU5455], the inhibition at 1 µM is -2%.
